GI50 data for 13 compounds are collected here from patent US11254676B2, “Pyrazole derivative compound and use thereof” (HANMI PHARM. CO., LTD., priority 2017, dated 2022).

The assay relates to NCI-H1417 cells. Briefly: Cell growth suppression test, CellTiter-Glo Luminescent Cell Viability Assay. Format: cell-based. The following applies: Homo sapiens, 240 h; NCI-H1417 cells treated for 10 days. As to the method: Cell growth suppression effects of the synthesized compounds on NCI-H1417 cells were identified. The cells were treated with the synthesized compounds for 10 days. Then, in order to test the cell growth suppression, CellTiter-Glo Luminescent Cell Viability Assay (available from Promega, USA) was used. This test is to measure emission signals proportional to the number of ATPs based on a fixed amount of ATPs, which represents the presence of metabolically active cells, thereby determining the number of viable cells. The results are expressed as a GI50 value. As for a control, GSK2879552 (available from GlaxoSmithKline USA) was used.
For orientation: ATP-based viability assays read luminescence as a measure of living cells.

In turn, `N#Cc1ccc(-c2cc(C(=O)N3CCC[C@@H](N)C3)nn2-c2ccc(C3CC3)cc2)cc1` [Example 1, (R)-4-(3-(3-aminopiperidine-1-carbonyl)-1-(4-cyclopropylphenyl)-1H-pyrazole-5-yl)benzonitrile] returned a concentration for 50% growth inhibition (GI50) of 94 nM.

In the case of `CN[C@@H]1CCCN(C(=O)c2cc(-c3ccc(C#N)cc3)n(-c3ccc(C4CC4)cc3)n2)C1` [Example 2, (R)-4-(1-(4-cyclopropylphenyl)-3-(3-methylaminopiperidine-1-carbonyl)-1H-pyrazole-5-yl)benzonitrile], the GI50 was 120 nM. The compound `N#Cc1ccc(-c2cc(C(=O)N3CCC[C@@H](N)C3)nn2-c2ccc(C3CC3)cc2F)cc1` [Example 3, (R)-4-(3-(3-aminopiperidine-1-carbonyl)-1-(4-cyclopropyl-2-fluorophenyl)-1H-pyrazole-5-yl)benzonitrile] had a GI50 of 49 nM. To `CN[C@@H]1CCCN(C(=O)c2cc(-c3ccc(C#N)cc3)n(-c3ccc(C4CC4)cc3F)n2)C1` [Example 4, (R)-4-(1-(4-cyclopropyl-2-fluorophenyl)-3-(3-(methylamino)piperidine-1-carbonyl)-1H-pyrazole-5-yl)benzonitrile] belongs 24 nM. With `N#Cc1ccc(-c2cc(C(=O)N3CCC[C@@H](N)C3)nn2-c2ccc(C3CC3)cc2F)cc1F` [Example 5, (R)-4-(3-(3-aminopiperidine-1-carbonyl)-1-(4-cyclopropyl-2-fluorophenyl)-1H-pyrazole-5-yl)-2-fluorobenzonitrile] the figure was 48 nM. For the compound `N#Cc1ccc(-c2cc(C(=O)N3CCCC[C@@H](N)C3)nn2-c2ccc(C3CC3)cc2F)cc1F` [Example 8, (R)-4-(3-(3-aminoazepane-1-carbonyl)-1-(4-cyclopropyl-2-fluorophenyl)-1H-pyrazole-5-yl)-2-fluorobenzonitrile], the 50% growth inhibitory concentration (GI50) was found to be 101 nM. On to `N#Cc1ccc(-c2cc(C(=O)N3CCC[C@@H](N)C3)nn2-c2c(F)cc(C3CC3)cc2F)cc1F` [Example 10, (R)-4-(3-(3-aminopiperidine-1-carbonyl)-1-(4-cyclopropyl-2,6-difluorophenyl)-1H-pyrazole-5-yl)-2-fluorobenzonitrile], for which the concentration for 50% growth inhibition (GI50) was determined as 108 nM.

Compound `CC(C)c1ccc(-n2nc(C(=O)N3CCC[C@@H](N)C3)cc2-c2ccc(C#N)cc2)cc1` [Example 35, (R)-4-(3-(3-aminopiperidine-1-carbonyl)-1-(4-isopropylphenyl)-1H-pyrazole-5-yl)benzonitrile] gave a GI50 of 145 nM. Compound `CN[C@@H]1CCCN(C(=O)c2cc(-c3ccc(C#N)cc3)n(-c3ccc(C(C)C)cc3)n2)C1` [Example 36, (R)-4-(1-(4-isopropylphenyl)-3-(3-(methylamino)piperidine-1-carbonyl)-1H-pyrazole-5-yl) benzonitrile] came in with a GI50 of 91 nM. To `CC(C)c1ccc(-n2nc(C(=O)N3CCC[C@@H](N)C3)cc2-c2ccc(C#N)cc2)c(F)c1` [Example 37, (R)-4-(3-(3-aminopiperidine-1-carbonyl)-1-(2-fluoro-4-isopropylphenyl)-1H-pyrazole-5-yl) benzonitrile] belongs 215 nM.

Consider `CC(C)c1ccc(-n2nc(C(=O)N3CCC[C@@H](N)C3)cc2-c2ccc(C#N)c(F)c2)c(F)c1` [Example 38, (R)-4-(3-(3-aminopiperidine-1-carbonyl)-1-(2-fluoro-4-isopropylphenyl)-1H-pyrazole-5-yl)-2-fluorobenzonitrile], for which halving of growth (GI50) required 79 nM. The compound `CC(C)c1ccc(-n2nc(C(=O)N3CCCC[C@@H](N)C3)cc2-c2ccc(C#N)c(F)c2)c(F)c1` [Example 39, (R)-4-(3-(3-aminoazepane-1-carbonyl)-1-(2-fluoro-4-isopropylphenyl)-1H-pyrazole-5-yl)-2-fluorobenzonitrile] gave a GI50 of 139 nM. `CC(C)(C)c1ccc(-n2nc(C(=O)N3CCC[C@@H](N)C3)cc2-c2ccc(C#N)cc2)cc1` [Example 40, (R)-4-(3-(3-aminopiperidine-1-carbonyl)-1-(4-(tert-butyl)phenyl)-1H-pyrazole-5-yl)benzonitrile] came in with a GI50 of 226 nM.

What is called GI50 is the concentration at which growth is held to half of that of the control.
